In data set [1] the test system is Dermacentor variabilis nymph. The experiment in a line: Antiparasitic activity after administration to rats: ticks. It counts as in vivo. To be noted: Dermacentor variabilis nymph; for In-vivo Efficacy SD2: study day 2; for In-vivo Efficacy SD9: study day 9. In short, it runs like this: (§1)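 Compounds dissolved in glycerol formal, given i.p. or s.c. to rats, 5 per group. Infestation with 30 D. variabilis nymphs (days −2, 7, 14, 21, 28, 35) and 30 adult C. felis (days −1, 8, 15, 22, 29, 36), with counts on days 2, 9, 16, 23, 30, 37. Percent efficacy compares mean live attached ticks or live fleas with a placebo-treated group.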

In data set [2] the test system is Ctenocephalides felis adult. The experiment in a line: Antiparasitic activity after administration to rats: fleas. It counts as in vivo. Conditions: Ctenocephalides felis adult; for In-vivo Efficacy SD2: study day 2; for In-vivo Efficacy SD9: study day 9. In short, it runs like this: as §1
Data set [3] in a line: Evaluation of pharmacokinetics in vivo (dog). The method, then: (§2) Evaluation of Pharmacokinetics (In Vivo) To evaluate the pharmacokinetics of test substances in vivo, these test substances are dissolved in appropriate formulation vehicles (ethanol, dimethyl sulfoxide, PEG400, glycerol formal etc.), or mixtures thereof. The test substances are then administered to rats or dogs intravenously, orally or subcutaneously. The intravenous application is performed as bolus. Administered doses range usually between 0.1 to 5 mg/kg, however, doses for subcutaneous and oral administration can exceed this range up to doses of 30 mg/kg. Blood samples are retrieved via a catheter, exsanguination or venous puncture in vials containing appropriate anticoagulants, such as lithium heparinate or potassium EDTA. Plasma is generated from the blood via centrifugation. Blood samples are taken over an appropriate time interval, usually lasting up to 144 h after administration. If necessary, samples from later time points can also be taken. If possible, time points are chosen so that the initial absorption phase, the maximum plasma concentration (Cmax), and exposure within a certain time interval (AUC(0-t))aer described. Furthermore, it is possible to also retrieve organ-, tissue- and urine samples. The quantitative measurement of the test substances in the samples is performed using calibration curves in the respective matrices. The protein content of the samples is precipitated using acetonitrile or methanol. Thereafter, the samples are separated using HPLC in combination with reversed phase chromatography columns. The HPLC system is coupled to a triple quadrupole mass spectrometer via an electrospray interface. The evaluation of the plasma concentration/time profiles are afterwards evaluated using a validated pharmacokinetics evaluation program. […] Relative bioavailability (Frel) was used to describe the exposure of parent drug after prodrug administration compared to the exposure of parent drug after direct administration of compound A which was normalised to 100%.

Data set [4] can be described thus: Evaluation of pharmacokinetics in vivo (rat). To be noted: concentration of Parent Drug A after admin. of the named substance. The method, then:
as §2

Each structure is given as a SMILES string.

With `N#CC1(NC(=O)c2cc(-c3cnn(-c4c(Cl)cc(C(F)(C(F)(F)F)C(F)(F)F)cc4OC(F)(F)F)c3)ccc2Cl)CC1` [Parent Drug A, 2-Chlor-5-{1-[2-chlor-4-(1,1,1,2,3,3,3-heptafluorpropan-2-yl)-6-(trifluormethoxy)phenyl]-1H-pyrazol-4-yl}-N-(1-cyanocyclopropyl)benzamide, reference compound], the “In-vivo Efficacy SD2” value in data set [1] (10 mg/kg ip) is recorded as 96%; in data set [1] (10 mg/kg sc) it was 72%; in data set [2] (10 mg/kg ip) it was 84%; in data set [2] (10 mg/kg sc) it was 53%. The “In-vivo Efficacy SD9” value in data set [1] (10 mg/kg ip) is on record as 87%; in data set [1] (10 mg/kg sc) it was 61%; in data set [2] (10 mg/kg ip) it was 68%; in data set [2] (10 mg/kg sc), 44%. Further, the “In-vivo Efficacy SD16” value in data set [1] (10 mg/kg ip, study day 16) is 83%; in data set [2] (10 mg/kg ip, study day 16) it was 71%. In data set [1] (10 mg/kg ip, study day 23), the “In-vivo Efficacy SD23” value is 93%. Moreover, the “In-vivo Efficacy SD30” value in data set [1] (10 mg/kg ip, study day 30) is 53%. Moreover, the “In-vivo Efficacy SD37” value in data set [1] (10 mg/kg ip, study day 37) is given as 32%. Moreover, the “AUC(0-72 h)norm of parent drug A” value in data set [3] (iv bolus, concentration of Parent Drug A after admin. of the named substance) came to 6.0 kg·h/L. Moreover, the bioavailability (as a rule, the share of a dose that reaches the circulation, judged against a reference dose that is usually intravenous) in data set [3] (plasma, sc, calculated based on AUC(0-t)norm, parent drug A normalised to 100%, read-out: Frel (relative bioavailability)) was 100%. In data set [3] (sc, concentration of Parent Drug A after admin. of the named substance), the “AUC(0-384 h)norm of parent drug A” value turned out to be 1.0 kg·h/L. In addition, the “AUC(0-144 h)norm of parent drug A” value was 11 kg·h/L in data set [4] (iv bolus) and 1.7 kg·h/L in data set [4] (sc).
